# Results reported in patent US20120115869A1, “TETRAZOLE DERIVATIVES” (MERCK SERONO S.A., priority 2009, published 2012).
# Target: T1, CRTH2 (DP2) (Homo sapiens, UniProt Q9Y5Y4)
# T1 construct: host or cells: CHO cells
# T1 sequence (Q9Y5Y4 1-395): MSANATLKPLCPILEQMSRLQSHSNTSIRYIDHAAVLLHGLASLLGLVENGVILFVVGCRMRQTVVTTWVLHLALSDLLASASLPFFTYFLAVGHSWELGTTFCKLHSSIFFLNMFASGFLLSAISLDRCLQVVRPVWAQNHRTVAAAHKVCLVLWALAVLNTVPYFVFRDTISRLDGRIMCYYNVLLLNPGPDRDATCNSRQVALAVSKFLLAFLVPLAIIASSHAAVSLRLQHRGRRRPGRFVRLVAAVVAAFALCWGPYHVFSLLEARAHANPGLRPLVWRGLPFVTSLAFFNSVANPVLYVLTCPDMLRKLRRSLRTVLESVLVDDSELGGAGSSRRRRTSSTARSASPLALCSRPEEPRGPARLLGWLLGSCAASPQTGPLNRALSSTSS
# Experiment: Radioligand binding Scintillation Proximity Assay ([3H]PGD2, hCRTH2-CHO cell membranes)
# Details: 1.5 nM [3H]PGD2, hCRTH2-CHO cell membranes, SPA
# Procedure: Adherent CHO cells expressing hCRTH2 (Euroscreen, Belgium) were cultured in 225 cm^2 cell culture flasks (Corning, USA) in 30 ml of medium. After two rinses of phosphate buffered saline (PBS), cells were harvested in 10 ml of PBS containing 1 mM EDTA, centrifuged at 500×g for 5 min at 4° C. and frozen at −80° C. The pellet was re-suspended in 50 mM Tris-HCl, pH 7.4, 2 mM EDTA, 250 mM Sucrose, containing protease inhibitor cocktail tablets, (Complete EDTA-free, Roche, Germany) and incubated 30 min at 4° C. Cells were disrupted by nitrogen cavitation (Parr Instruments, USA) at 4° C. (800 p.s.i. for 30 min), and centrifuged at 500×g for 10 min at 4° C. Pellet containing nuclei and cellular debris was discarded and supernatant was centrifuged 60 min at 4° C. at 45000×g. Membrane pellet was re-suspended in storage buffer (10 mM HEPES/KOH pH 7.4, 1 mM EDTA, 250 mM sucrose, protease inhibitor cocktail tablets) using Dounce homogenization and frozen in liquid nitrogen, and stored at 80° C.
# Non-specific binding was determined in the presence of 10 μM PGD2 (Cayman, USA). Competing Compounds of Formula (I) were diluted in dimethylsulphoxide so that the total volume of dimethylsulfoxide was kept constant at 1% dimethylsulphoxide (Me2SO). Serial dilutions of […] were prepared and 10 μl each of the compounds of Formula (I) stock solutions were added to the binding assay reagents and incubated for 90 min with agitation at room temperature.
smiles,measurement,value
"CCC(=O)N(Cc1cccc(C#CC(C)(C)C)c1)c1cccc(-c2nnn[nH]2)c1 [Example 50, N-[3-(3,3-dimethylbut-1-yn-1-yl)benzyl]-N-[3-(1H-tetrazol-5-yl)phenyl]propanamide]",IC50,1300 nM
"CCC(=O)N(Cc1cccnc1)c1cccc(-c2nnn[nH]2)c1 [Example 51, N-(pyridin-3-ylmethyl)-N-[3-(1H-tetrazol-5-yl)phenyl]propanamide]",IC50,6750 nM
"CCC(=O)N(Cc1ccncc1)c1cccc(-c2nnn[nH]2)c1 [Example 52, N-(pyridin-4-ylmethyl)-N-[3-(1H-tetrazol-5-yl)phenyl]propanamide]",IC50,6680 nM
"CCCCC(=O)N(Cc1ccc(C(F)(F)F)cc1)c1cc(F)cc(-c2nnn[nH]2)c1 [Example 60, N-[3-fluoro-5-(1H-tetrazol-5-yl)phenyl]-N-[4-(trifluoromethyl)benzyl]pentanamide]",IC50,2.6 nM
"CCC(=O)N(Cc1cccc(-c2c(C)noc2C)c1)c1cccc(-c2nnn[nH]2)c1 [Example 61, N-[3-(3,5-dimethylisoxazol-4-yl)benzyl]-N-[3-(1H-tetrazol-5-yl)phenyl]propanamide]",IC50,305 nM
"CCC(=O)N(Cc1cccc(-c2cnoc2)c1)c1cccc(-c2nnn[nH]2)c1 [Example 62, N-(3-isoxazol-4-ylbenzyl)-N-[3-(1H-tetrazol-5-yl)phenyl]propanamide]",IC50,769 nM
"CCC(=O)N(Cc1cccc(-c2sc(C)nc2C)c1)c1cccc(-c2nnn[nH]2)c1 [Example 63, N-[3-(2,4-dimethyl-1,3-thiazol-5-yl)benzyl]-N-[3-(1H-tetrazol-5-yl)phenyl]propanamide]",IC50,235 nM
"CCC(=O)N(Cc1cccc(-c2cccnc2)c1)c1cccc(-c2nnn[nH]2)c1 [Example 64, N-(3-pyridin-3-ylbenzyl)-N-[3-(1H-tetrazol-5-yl)phenyl]propanamide]",IC50,403 nM
"CCC(=O)N(Cc1ccc(S(C)(=O)=O)cc1)c1cccc(-c2nnn[nH]2)c1 [Example 65, N-[4-(methylsulfonyl)benzyl]-N-[3-(1H-tetrazol-5-yl)phenyl]propanamide]",IC50,75 nM
"CCC(=O)N(Cc1ccc(-c2cc[nH]n2)cc1)c1cccc(-c2nnn[nH]2)c1 [Example 66, N-[4-(1H-pyrazol-3-yl)benzyl]-N-[3-(1H-tetrazol-5-yl)phenyl]propanamide]",IC50,973 nM
"CCOCC(=O)N(Cc1ccc(OC(F)(F)F)cc1)c1cc(Cl)cc(-c2nnn[nH]2)c1 [Example 67, N-[3-chloro-5-(1H-tetrazol-5-yl)phenyl]-2-ethoxy-N-[4-(trifluoromethoxy)benzyl]acetamide]",IC50,16 nM
"CCC(=O)N(Cc1ccc(-c2ccccc2)cc1)c1cccc(-c2nnn[nH]2)c1 [Example 69, N-(biphenyl-4-ylmethyl)-N-[3-(1H-tetrazol-5-yl)phenyl]propanamide]",IC50,506 nM
"CCC(=O)N(Cc1ccc(-c2cn[nH]c2)cc1)c1cccc(-c2nnn[nH]2)c1 [Example 70, N-[4-(1H-pyrazol-4-yl)benzyl]-N-[3-(1H-tetrazol-5-yl)phenyl]propanamide]",IC50,455 nM
"CCC(=O)N(Cc1ccc(-c2c(C)noc2C)cc1)c1cccc(-c2nnn[nH]2)c1 [Example 71, N-[4-(3,5-dimethylisoxazol-4-yl)benzyl]-N-[3-(1H-tetrazol-5-yl)phenyl]propanamide]",IC50,182 nM
"CCC(=O)N(Cc1ccc2ncccc2c1)c1cccc(-c2nnn[nH]2)c1 [Example 72, N-(quinolin-6-ylmethyl)-N-[3-(1H-tetrazol-5-yl)phenyl]propanamide]",IC50,1110 nM
"CCC(=O)N(Cc1cccc(C)c1)c1cccc(-c2nnn[nH]2)c1 [Example 73, N-(3-methylbenzyl)-N-[3-(1H-tetrazol-5-yl)phenyl]propanamide]",IC50,662 nM
"CCCCC(=O)N(Cc1ccc(O)cc1)c1cccc(-c2nnn[nH]2)c1 [Example 74, N-(4-hydroxybenzyl)-N-[3-(1H-tetrazol-5-yl)phenyl]pentanamide]",IC50,169 nM
"CCC(=O)N(Cc1cccc(OC(C)C)c1)c1cc(F)cc(-c2nnn[nH]2)c1 [Example 75, N-[3-fluoro-5-(1H-tetrazol-5-yl)phenyl]-N-(3-isopropoxybenzyl)propanamide]",IC50,7.1 nM
"CCC(=O)N(Cc1ccc(Cl)c(OC(F)(F)F)c1)c1cc(F)cc(-c2nnn[nH]2)c1 [Example 76, N-[4-chloro-3-(trifluoromethoxy)benzyl]-N-[3-fluoro-5-(1H-tetrazol-5-yl)phenyl]propanamide]",IC50,18 nM
"CCC(=O)N(Cc1cccc(SC(F)(F)F)c1)c1cc(F)cc(-c2nnn[nH]2)c1 [Example 77, N-[3-fluoro-5-(1H-tetrazol-5-yl)phenyl]-N-{3-[(trifluoromethyl)thio]benzyl}propanamide]",IC50,16 nM
"CCCCC(=O)N(Cc1cccc(O)c1)c1cccc(-c2nnn[nH]2)c1 [Example 79, N-(3-hydroxybenzyl)-N-[3-(1H-tetrazol-5-yl)phenyl]pentanamide]",IC50,140 nM
"CCC(=O)N(Cc1ccc2ccccc2n1)c1cc(F)cc(-c2nnn[nH]2)c1 [Example 80, N-[3-fluoro-5-(1H-tetrazol-5-yl)phenyl]-N-(quinolin-2-ylmethyl)propanamide]",IC50,65 nM
"CCC(=O)N(Cc1cccc(-c2cccnc2)c1)c1cc(F)cc(-c2nnn[nH]2)c1 [Example 81, N-[3-fluoro-5-(1H-tetrazol-5-yl)phenyl]-N-(3-pyridin-3-ylbenzyl)propanamide]",IC50,34 nM
"CCC(=O)N(Cc1ccc(SC(F)(F)F)cc1)c1cc(F)cc(-c2nnn[nH]2)c1 [Example 82, N-[3-fluoro-5-(1H-tetrazol-5-yl)phenyl]-N-{4-[(trifluoromethyl)thio]benzyl}propanamide]",IC50,2.6 nM
"CCC(=O)N(Cc1cccc(-c2ccncc2)c1)c1cc(F)cc(-c2nnn[nH]2)c1 [Example 83, N-[3-fluoro-5-(1H-tetrazol-5-yl)phenyl]-N-(3-pyridin-4-ylbenzyl)propanamide]",IC50,25 nM
"CCC(=O)N(Cc1cccc(-c2c(C)noc2C)c1)c1cc(F)cc(-c2nnn[nH]2)c1 [Example 85, N-[3-(3,5-dimethylisoxazol-4-yl)benzyl]-N-[3-fluoro-5-(1H-tetrazol-5-yl)phenyl]propanamide]",IC50,19 nM
"CCNS(=O)(=O)c1cccc(-c2ccc(CN(C(=O)CC)c3cc(F)cc(-c4nnn[nH]4)c3)cc2)c1 [Example 86, N-({3′-[(ethylamino)sulfonyl]biphenyl-4-yl}methyl)-N-[3-fluoro-5-(1H-tetrazol-5-yl)phenyl]propanamide]",IC50,170 nM
"CCC(=O)N(Cc1ccc(-c2cccc(S(C)(=O)=O)c2)cc1)c1cc(F)cc(-c2nnn[nH]2)c1 [Example 87, N-[3-fluoro-5-(1H-tetrazol-5-yl)phenyl]-N-{[3′-(methylsulfonyl)biphenyl-4-yl]methyl}propanamide]",IC50,185 nM
"CCC(=O)N(Cc1ccc(-c2cn(C)nc2C)cc1)c1cc(F)cc(-c2nnn[nH]2)c1 [Example 88, N-[4-(1,3-dimethyl-1H-pyrazol-4-yl)benzyl]-N-[3-fluoro-5-(1H-tetrazol-5-yl)phenyl]propanamide]",IC50,21 nM
"CCC(=O)N(Cc1ccc(-c2ccncc2)cc1)c1cc(F)cc(-c2nnn[nH]2)c1 [Example 89, N-[3-fluoro-5-(1H-tetrazol-5-yl)phenyl]-N-(4-pyridin-4-ylbenzyl)propanamide]",IC50,57 nM
"CCC(=O)N(Cc1ccc(-c2cccnc2)cc1)c1cc(F)cc(-c2nnn[nH]2)c1 [Example 90, N-[3-fluoro-5-(1H-tetrazol-5-yl)phenyl]-N-(4-pyridin-3-ylbenzyl)propanamide]",IC50,140 nM
"CCC(=O)N(Cc1ccc(-c2cccc(S(=O)(=O)N3CCOCC3)c2)cc1)c1cc(F)cc(-c2nnn[nH]2)c1 [Example 91, N-[3-fluoro-5-(1H-tetrazol-5-yl)phenyl]-N-{[3′-(morpholin-4-ylsulfonyl)biphenyl-4-yl]methyl}propanamide]",IC50,145 nM
"CCC(=O)N(Cc1ccc(-c2cccc(S(=O)(=O)NCCO)c2)cc1)c1cc(F)cc(-c2nnn[nH]2)c1 [Example 92, N-[3-fluoro-5-(1H-tetrazol-5-yl)phenyl]-N-[(3′-{[(2-hydroxyethyl)amino]sulfonyl}biphenyl-4-yl)methyl]propanamide]",IC50,160 nM
"CCC(=O)N(Cc1ccc(-c2cccc(S(=O)(=O)N(C)C)c2)cc1)c1cc(F)cc(-c2nnn[nH]2)c1 [Example 93, N-({3′-[(dimethylamino)sulfonyl]biphenyl-4-yl}methyl)-N-[3-fluoro-5-(1H-tetrazol-5-yl)phenyl]propanamide]",IC50,125 nM
